Data on 30 compounds can be found in PubChem BioAssay (NCI).

Common to all, as to test: NCI-60 cell line screen, 48 h
Assay [1] deals with XF 498 CNS.
The test system of assay [2] is RXF-631 renal.
Assay [3] concerns DLD-1 colon.
For assay [4], the system named is DMS 114 small cell lung.
Assay [5] deals with DMS 273 small cell lung.
Assay [6] deals with SNB-78 CNS.
Assay [7] concerns HOP-18 NSCLC.
For assay [8], the system named is KM20L2 colon.
Assay [9] deals with MDA-N.

“And” between values parts separate entries of the source, which are not always exact repeats. Equal values may be shown once.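 Five compound concentrations were applied to cells in 96-well plates for 48 hours; endpoints were derived by simple linear interpolation of the resulting dose-response curve. GI50 marks 50% less growth. The concentration for full growth arrest is given as TGI.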

Turning to `CN1CC(C(=O)C2C(=O)c3ccccc3C2=O)C(=O)C(=O)C(C(=O)C2C(=O)c3ccccc3C2=O)C1` (stereo not drawn), the TGI in [1], in [2], in [3], in assay [4] and in assay [5] was over 100 µM in each case.
With `CCCCOC(=O)NC(=O)c1cn(CCSCCOC(=O)NCCCCCCNC(=O)OCCSCCn2cc(C(=O)NC(=O)OCCCC)c(=O)[nH]c2=O)c(=O)[nH]c1=O`, the TGI in assay [2], in assay [3], in assay [4], in assay [6], in assay [5] and in assay [7] was over 100 µM each time. Also, the TGI in assay [8] is over 100 µM.
As for `COc1cc2c(cc1O)CC13CCC(=O)N1CCc1cc(OC)c(O)c-2c13` (stereo not drawn), the TGI in [2], in assay [3], in assay [4], in [6], in assay [7] and in assay [8] was over 68.1 µM in each case.
On to `CC(=O)CCCCO`, for which the TGI in assay [1], in [4], in assay [6] and in assay [5] was over 100 µM in each case.
Turning to `COc1ccccc1NC(=O)C1=C(C)NC(C)=C(C(=O)Nc2ccccc2OC)C1c1ccc(C)cc1`, the TGI in assay [1], in assay [4], in assay [6], in [5], in assay [7] and in assay [8] was over 100 µM in each case.
Turning to `Fc1ccc(C2SCc3nc4ccccc4n32)cc1` (stereo not drawn), the TGI in assay [1], in [3], in assay [4] and in [6] was over 100 µM throughout.
As for `O=C(CC(=O)N1N=C(N2c3ccccc3Sc3ccccc32)CC1c1ccccc1)Nc1ccc(Cl)cc1` (stereo not drawn), the TGI in [1], in assay [3], in [4], in assay [6], in assay [5] and in assay [7] was over 100 µM in each case. For the same compound, the TGI in [8] was over 100 µM.
Turning to `NC(=O)C(c1ccccc1)N1CCOCC1` (stereo not drawn), the TGI in assay [3], in assay [4], in assay [6], in assay [5], in [7] and in [8] was over 100 µM in each case.
Regarding `CC(=O)OC1(C)C(=O)OC1(C)C(C)=O` (stereo not drawn), the TGI in assay [2], in assay [3], in assay [4], in assay [6], in assay [5] and in assay [7] was over 100 µM each time. Further, the TGI in assay [8] was over 100 µM.
Consider `COC(=O)C1(F)C(=O)NC(=O)NC1O` (stereo not drawn), for which the TGI in [9] is over 100 µM.
For `O=C1C(=O)N(c2ccc(Cl)cc2Cl)C(=O)C(=O)C1c1nc2ccccc2o1`, the TGI in [1], in [2], in assay [3], in [6], in assay [5] and in assay [7] was over 100 µM each time. Besides, the TGI in [8] is over 100 µM.
For the compound `c1ccc2c(c1)[nH]c1cnc3c4cccnc4[nH]c3c12`, the TGI in [3] came to 33.5 µM; in assay [4] it was 37.4 µM; in assay [6], 46.6 µM; in [7] it was 36.7 µM.
With `COc1cc2c[n+](C)c3c4ccccc4ccc3c2cc1OC` (tested in a mixture with another compound), the TGI in assay [1] was 17.7 µM; in assay [2], over 66.1 µM; in assay [3] it was over 100 µM; in assay [4], 14.6 µM; in [5], 15.7 µM; in assay [7], 76.8 µM. The TGI turned out to be 20.5 µM in assay [9] and 37.9 µM in assay [8].
Take `O=C1CN(C(=O)c2ccccc2)Cc2[nH]c3ccccc3c21`: the TGI in assay [1], in [2], in assay [3], in assay [4], in [6] and in assay [5] was over 100 µM each time. In addition, the TGI in assay [7] and in [8] was over 100 µM in each case.
In the case of `O=C(O)c1cc(N=Cc2ccccc2O)cc(C(=O)O)c1`, the TGI in assay [9] is over 100 µM.
Take `O=C(OCC1CO1)c1cccs1` (stereo not drawn): the TGI in assay [1], in assay [2], in [3], in assay [4], in assay [6] and in assay [5] was over 100 µM in each case. Moreover, the TGI in [8] is over 100 µM.
As to `COc1cccc(/C=C/c2cnc3ccccc3n2)c1OC`, the TGI in assay [9] is over 100 µM.
As to `CCN(CCCl)CCCNc1c2ccccc2nc2ccc(OC)cc12`, the GI50 in assay [1] is 381 µM; in [3], 174 µM; in [6] it was 585 µM; in assay [5], 177 µM. Moreover, the TGI in [4] was 1.76 µM; in assay [8], 2.2 µM.
Regarding `CC(=O)OCC1OC(OC2CC3C(C)(C)C(O)CC[C@]3(C)C3CCC45CC4(CC[C@H]5C(C)CC(O)C4OC4(C)C)[C@]23C)C(O)C(O)C1O` (stereo partly drawn), the TGI in assay [1] is 14.3 µM; in [3], 14.9 µM and 28.8 µM; in assay [4] it was 11.3 µM and 21.3 µM; in assay [5], 15.1 µM and 15.7 µM; in assay [7], 13.6 µM and 17.5 µM; in assay [8], 15.6 µM and 24.2 µM. Further, the GI50 was 14 µM in [3]; 6.7 µM in assay [4]; 4.44 µM in assay [5]; 5.27 µM in assay [7]; 11.9 µM in assay [8].
With `C1OC1CO[C@@H]1CO[C@H]2[C@@H]1OC[C@H]2OCC1CO1` (stereo partly drawn), the TGI in assay [1], in assay [3], in assay [4], in assay [6], in assay [5] and in [7] was over 100 µM each time. In [8], the TGI is over 100 µM.
In [9], `COc1ccc(/C=C\c2cc(OC)c(OC)c(OC)c2)cc1OC(=O)CCC(=O)O` showed a TGI of over 100 µM.
As for `CCOC(=O)C1SC(=Nc2ccc(Cl)c(Cl)c2)N=C1C` (stereo not drawn), the TGI in assay [1] was over 100 µM; in assay [2], over 100 µM; in assay [3], over 100 µM; in assay [5], over 100 µM; in assay [7], over 100 µM; in assay [8] it was 78.8 µM.
Regarding `Cc1cc(NS(=O)(=O)c2ccc(NC(=O)c3cccc4c(Nc5ccc(S(=O)(=O)N=C(N)N)cc5)c5ccccc5nc34)cc2)no1`, the TGI in assay [2], in assay [3], in assay [6], in [5] and in assay [8] was over 100 µM in each case.
As to `CC#CC1/C(=C\C(=O)OC)CCCC1O` (stereo not drawn), the TGI in assay [1], in [3], in assay [4], in assay [6] and in [5] was over 100 µM throughout.
`COc1ccc(/C=C/C(=O)Oc2cc(O)cc(O)c2)cc1` gave a TGI in assay [9] of over 100 µM.
Still for that read-out and setting: next, `Cc1ccc2c(c1)NC(=O)CC(c1ccccc1)=N2`: 60.7 µM.
Consider `Nc1c(C(=O)Nc2ccccc2)[n+]([O-])c2ccccc2[n+]1[O-]`, for which the TGI came out at 32.6 µM in [1]; 37.6 µM in assay [3]; 26.8 µM in [4]; 40.4 µM in assay [6]; 46.9 µM in [5]; 26.3 µM in assay [7]. This compound also displayed a TGI in [8] of 34.7 µM.
In the case of `O=C(C(=O)N1CC2C=CC1CC2)c1c[nH]c2ccccc12` (stereo not drawn), the TGI in assay [2], in assay [3], in [4], in assay [6], in assay [5] and in assay [7] was over 100 µM each time. In addition, the TGI in assay [8] is over 100 µM.
As to `CC1=CCC23C(C1)OC(Br)(C=CC2(C)O)C3(C)C` (stereo not drawn), the TGI in assay [1], in [3], in [4], in [6], in assay [5] and in assay [7] was over 100 µM throughout.
The compound `CC(=O)OC1CC2(O)C3CCC4CC(O)CCC4(C)C3CCC2(C)C1C1=CC(=O)OC1` (stereo not drawn) had a TGI in assay [9] of 0.317 µM.
